Patent US20110098556A1, “Computer-Based Method And System For Imaging-Based Dynamic Function Evaluation Of An Organ” (priority 2008, published 2011)
Several values for one entry are separate records, joined by “and”; a condition that tells them apart may be missing. Equal values may be shown once.

What was measured:
liver [1] = assay: Gd-EOB-DTPA-enhanced DHCE-MRI in patients with primary biliary cirrhosis (PBC); assay type: in vivo, human
Method: (§1) T1-weighted Gd-EOB-DTPA-enhanced DHCE-MRI was performed on 20 healthy volunteers, 10 men and 10 women, and on patients with an established diagnosis of PBC. Routine serum liver function tests were performed at inclusion in the study on the healthy volunteers, and for the patients it was recorded from the most recent visit documented in their clinical charts. The healthy volunteers had no history of hepato-biliary disease, previous hepato-biliary surgery or alcohol abuse. All subjects were asked to be fasting for at least four hours prior to the examination. For each patient, relevant clinical data was documented and together with the results from the liver function tests they were used to calculate the CPS, Mayo risk score and MELD score.
(§2) T1-weighted Gd-EOB-DTPA-enhanced DHCE-MRI was performed using a Philips Intera 1.5T scanner (Best, Holland), with a Philips four-channel SENSE body coil according to the protocol in Example 1. Deconvolutional analysis was performed using truncated singular value decomposition (TSVD). HEF and irBF were calculated as described above. […] The Mann-Whitney U-test was used for test of significance and the significance level was set to […]. All segments in every patient and controls yielded an observation and in the statistical analysis, all observations were regarded as independent observations, even if they originated from one individual. Thus, the study yielded 180 observations for each of the abovementioned parameters from the controls, and 108 observations from PBC patients.

liver [2] = assay: Gd-EOB-DTPA-enhanced MRI in patients with primary sclerosing cholangitis (PSC); assay type: in vivo, human; parameters: HEF: unit not given here
Method: as §1, with “MRI” for “DHCE-MRI”, “PSC.” for “PBC.”
as §2, with “MRI” for “DHCE-MRI”, “protocol as outlined” for “protocol”, “PSC” for “PBC”

liver [3] = assay: T1-weighted Gd-EOB-DTPA-enhanced DHCE-MRI liver function test, healthy volunteers; assay type: in vivo, human; parameters: key to median HEF / HEF, mean / HEF, median / HEF, max / HEF: ratio of extrapolated hepatic retention curve to vascular peak of HE curve; conditions: for median HEF: healthy volunteers; for HEF, mean / HEF, max / HEF, median: n=20 healthy volunteers
Method: Deconvoluted liver response curves were analyzed with respect to HEF and RBF. HEF was described by Brown et al using Tc-99-disofenin scintigraphy as a measurement of hepatic extraction efficiency, and could be understood as the percentage of tracer that would have been extracted if the tracer had been injected directly into the afferent blood supply of the liver without subsequent recirculation. […] The HE curve can be divided into the vascular phase and the hepatocyte retention phase, which describes the hepatic extraction. We calculated HEF using a monoexponential fit to the HE-curve data points from 420 to 1800 seconds after the time of injection of the tracer. The starting point at 420 seconds was chosen after visual inspection of the deconvoluted HE curves. The fitted curve, the hepatic retention curve (HRC, a mono-exponentially decaying fitted curve), is then extrapolated back to the time of the vascular peak value, and HEF is defined as the ratio between the extrapolated HRC curve and the vascular peak of the HE curve (also shown in FIG. 3),
RBF, giving a relative measurement of blood flow in the liver, is described as the initial peak value of the HE curve. RBF values were normalized to the segment with the highest RBF, i.e. the segment with the highest RBF was set to 100%.
The input function was defined by a region of interest (ROI) placed in the hilar part of the portal vein. Due to patient motion, the input function ROI was adjusted in each dynamic acquisition so the voxels represent portal vein blood. Liver response function curves were defined by placing three ROIs in each liver segment (I to VIII with segment IV divided into IVa and IVb). The relative enhancement over time of the voxels in the ROI was regarded as the parenchymal response function for that ROI. Data points were interpolated using equidistant spacing (60 s) over the 90-minute time period. […] Care was taken to as far as possible to exclude major blood vessels and visible bile ducts when the ROIs were placed. Segments were defined and nomenclature adhered to as proposed by Strasberg SM. Terminology of liver anatomy and liver resections: coming to grips with hepatic Babel. J Am Coll Surg 1997; 184(4):413-434, which is incorporated herein by reference in its entirety. However, other segmentations may be used in other embodiments.
HEF and RBF were calculated for each ROI both with TSVD and FA+tail using specific in-house software written in MATLAB® (Mathworks, […], USA). Thus, each ROI yielded two values for HEF and RBF respectively. For TSVD, a static truncation threshold was set at c=0.07. A cosine function from 0 to π/2 with the initial height of the last point of x(t) and y(t) was added for the DA performed with FA, and the length of the tail was set to be three times the length of the total sampling period of 90 minutes. […]
To arrive at an estimation of the model parameters, an iterative method was used. After assigning starting values to kij and f the impulse response function h(t) was estimated through Eq 10, and an output function yout(t) was calculated through yout(t)=h(t) ? x(t)+f·x(t), using the input function x(t) from the portal vein as an estimate for the blood pool signal in Equation 7. The response function y(t) on the other hand was measured in a ROI in the liver parenchyma, and the parameters kij and f were determined by iteratively minimizing the squared difference diff=(y(t)−yout(t))^2, see FIG. 17.
For some response curves either T10, or both T5 and T10, were beyond the last measured time point, and no value was set. Tmax, T5 and T10 were measured in seconds.
where g(t) is the fitted curve and the fitting parameters c2 and TU describe contrast uptake, while c1 and TE describe the liver contrast excretion. Both TE and TU were calculated in minutes.
T1-weighted Gd-EOB-DTPA-enhanced DHCE-MRI was performed on 20 healthy volunteers, 10 men and 10 women, ages ranging from 22 to 45 years. […]

[4] = in vivo; cited from earlier work
[5] = individual PBC patient, median of 9 segmental values
[6] = median for PBC patients (n = 108)
[7] = individual PSC patient, median of 9 segmental values
[8] = median for PSC patients (segments n = 108)
[9] = median for healthy controls (n = 180)

T5 (liver [1]; [6]): 1440 s | T10 (liver [1]; [6]): 1920 s | TE (liver [1]; [6]): 2850 min | Tmax (liver [1]; [6]): 41 min | HEF (liver [1]; median for PBC patients (n = 108 segments)): 0.161 | HEF (liver [2]; [8]): 0.176 | T5 (liver [2]; [8]): 1340 s | T10 (liver [2]; [8]): 2050 s | TE (liver [2]; [8]): 204 min | Tmax (liver [2]; [8]): 37.67 min | signal intensity half-time (TE) (liver [3]; compared with total scan time): > 90 min | mean HEF (liver [3]; example 1, healthy volunteers): above 20% | hepatic extraction fraction (HEF) (liver [3]; example curve of FIG. 3, FA+tail): approximately 17% | median HEF (liver [3]; left hemiliver, FA+tail): 0.194 | median HEF (liver [3]; left hemiliver, TSVD): 0.196 | HEF (liver [3]; median for 20 healthy controls (n = 180 segments), TSVD): 0.201 | T5 (liver [3]; [9]): 1600 s | T10 (liver [3]; [9]): 2295 s | Tmax (liver [3]; [9]): 33.33 min | HEF, mean (liver [3]; 180 segmental values, deconvolution by TSVD): 0.215 | HEF, max (liver [3]; FA + tail): 0.440 | HEF, median (liver [3]; FA + tail): 0.210 | HEF, max (liver [3]; TSVD): 0.436 | HEF, median (liver [3]; TSVD): 0.208 | HEF, mean (liver [3]; deconvolution by FA + tail): 0.217 | median HEF (liver [3]; right hemiliver, FA+tail): 0.224 | median HEF (liver [3]; right hemiliver, TSVD): 0.218
Compound: CCOc1ccc(CC(CN(CCN(CC(=O)[O-])CC(=O)[O-])CC(=O)[O-])N(CC(=O)[O-])CC(=O)[O-])cc1.[Gd+3].[Na+].[Na+] (stereo not drawn) [Gd-EOB-DTPA, Gadolinium ethoxybenzyl diethylenetriaminepentaacetic acid]
T5 (time from Tmax to five percent decay) (liver [1]; [5]): 24.33 min and 18.17 min and 40.67 min and 33 min and 24.83 min and 21.67 min and 34 min and 24.67 min and 25.67 min and 13.5 min and 4 min and 15.7 min | T10 (time from Tmax to ten percent decay) (liver [1]; [5]): 30.5 min and 28 min and 38 min and 34 min and 50.5 min and 32.5 min and 48 min and 41 min and 41.33 min and 30 min and 15.7 min and 24 min | Tmax (time to maximum intensity) (liver [1]; [5]): 48.33 min and 35 min and 36.67 min and 66.67 min and 43.33 min and 60 min and 22.67 min and 40 min and 8 min and 3.33 min and 51.67 min | HEF (liver [1]; individual PBC patient, median of 9 segmental values, TSVD): 0.163 (2×) and 0.225 and 0.302 and 0.150 and 0.093 and 0.226 and 0.199 and 0.155 and 0.106 and 0.047 and 0.152 | TE (excretion half-time) (liver [1]; individual PBC patient, median of 9 segments, bi-exponential fit): 3780 min and 1591 min and 4791 min and 6961 min and 4241 min and 1180 min and 8011 min and 2130 min and 2481 min and 1141 min and 2830 min and 1281 min | T5 (liver [2]; [7]): 1720 s and 980 s and 1620 s and 940 s and 1420 s and 1380 s and 1170 s and 1400 s and 1250 s and 1500 s and 1340 s and 2140 s | T10 (liver [2]; [7]): 1980 s and 1560 s and 1950 s and 1720 s and 2645 s and 1840 s and 2340 s and 2600 s and 2050 s and 2490 s and 2460 s and 3540 s | Tmax (liver [2]; [7]): 56.67 min and 41.67 min and 46.67 min and 27 min and 31 min and 30 min and 48 min and 21.33 min and 36.67 min and 28 min and 63.33 min | HEF (liver [2]; individual PSC patient, median of 9 segmental values, TSVD): 0.158 and 0.213 and 0.221 and 0.307 and 0.140 and 0.220 and 0.159 and 0.136 (2×) and 0.123 and 0.174 and 0.240 | TE (liver [2]; individual PSC patient, median of 9 segments, bi-exponential fit): 1427 min and 110 min and 184 min and 102 min and 244 min and 211 min and 251 min and 203 min and 147 min and 128 min and 341 min and 452 min | fraction eliminated by renal excretion (glomerular filtration) [4]: 50% | hepatic clearance [4]: about 50%
